Test results taken from US20240381872A1, “SUBSTITUTED 2,3-DIHYDRO[1,3]THIAZOLO[4,5-B]PYRIDINES, SALTS THEREOF AND THEIR USE AS HERBICIDALLY ACTIVE SUBSTANCES” (BAYER AKTIENGESELLSCHAFT, priority 2021, published 2024).

Experiments:
Format in all cases: in vivo
[1] = system: Alopecurus myosuroides (ALOMY); assay: Herbicidal pre-emergence action, section C (Table C2); conditions: Alopecurus myosuroides, pre-emergence, 504 h; application rate 320 g/ha; visual grading after ca. 3 weeks vs untreated controls; read-out: pre-emergence activity against ALOMY in %
Source text: (§1) Seeds of mono- and dicotyledonous weed plants and crop plants were sown, in plastic or organic planting pots, in sandy loam and covered with soil. The compounds according to the invention, formulated in the form of wettable powders (WP) or as emulsifiable concentrates (EC), were applied to the surface of the covering soil as aqueous suspension or emulsion, with the addition of 0.5% of an additive, at an application rate of 600 l of water/ha (converted). Following treatment, the pots were placed in a greenhouse and kept under optimum growth conditions for the test plants. The visual grading of the damage to the test plants was carried out after ca. 3 weeks in comparison to untreated controls (herbicidal effect in percent (%): 100% effect=plants have died off, 0% effect=as control plants).

[2] = system: Echinochloa crus-galli (ECHCG); assay: Herbicidal pre-emergence action, section C (Table C3); conditions: Echinochloa crus-galli, pre-emergence, 504 h; application rate 320 g/ha; visual grading after ca. 3 weeks vs untreated controls; read-out: pre-emergence activity against ECHCG in %
Source text: as §1

Setaria viridis (SETVI) = assay: Herbicidal pre-emergence action, section C (Table C8); conditions: Setaria viridis, pre-emergence, 504 h; application rate 320 g/ha; visual grading after ca. 3 weeks; read-out: pre-emergence activity against SETVI in %
Source text: as §1

[3] = system: Amaranthus retroflexus (AMARE); assay: Herbicidal pre-emergence action, section C (Table C11); conditions: visual grading after ca. 3 weeks
Source text: as §1

Zea mays (ZEAMX) [4] = assay: Pre-emergence effects on crop plants, section D (Table D1); conditions: visual grading after ca. 3 weeks
Source text: (§2) Seeds of mono- and dicotyledonous weed plants and crop plants were sown, in plastic or organic planting pots, in sandy loam and covered with soil. The compounds according to the invention, formulated in the form of wettable powders (WP) or as emulsifiable concentrates (EC), were applied to the surface of the covering soil as aqueous suspension or emulsion, with the addition of 0.5% of an additive, at an application rate of 600 l of water/ha (converted).
(§3) Following treatment, the pots were placed in a greenhouse and kept under optimum growth conditions for the test plants. The visual grading of the damage to the test plants was carried out after ca. 3 weeks in comparison to untreated controls (herbicidal effect in percent (%): 100% effect=plants have died off, 0% effect=as control plants).
(§4) Tables D1 to D5 below show the effects of various compounds of the general formula (I) according to Table 1 on various crop plants and an application rate corresponding to 320 g/ha or below obtained by the experimental procedure mentioned above in Biological Examples, Section C.

[5] = system: Triticum aestivum (TRZAS); assay: Pre-emergence effects on crop plants, section D (Table D2); conditions: visual grading after ca. 3 weeks
Procedure, shortened: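 Pre-emergence soil-surface spray, 320 g/ha or below, 600 l water/ha + 0.5% additive; WP/EC formulations; sandy loam; greenhouse; visual % damage vs untreated at ~3 wk.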

Oryza sativa (ORYZA) [6] = assay: Pre-emergence effects on crop plants, section D (Table D3); conditions: visual grading after ca. 3 weeks
Source text: as §2, §3, §4

Brassica napus (BRSNW) [7] = assay: Pre-emergence effects on crop plants, section D (Table D5); conditions: visual grading after ca. 3 weeks
Source text: as §2, §3, §4

Veronica persica (VERPE) [8] = assay: Herbicidal post-emergence action, section E (Table E9); conditions: Veronica persica, 504 h, application rate 320 g/ha, visual assessment ca. 3 weeks after spraying, read-out: post-emergence activity against VERPE in %
Source text: (§5) Seeds of mono- and dicotyledonous weed plants and crop plants were sown, in plastic or organic planting pots, in sandy loam, covered with soil and grown in a greenhouse under controlled growth conditions. 2 to 3 weeks after sowing, the test plants were sprayed in the single-leaf stage. The compounds according to the invention, formulated in form of wettable powders (WP) or as emulsifiable concentrates (EC), were sprayed onto the green plant parts as aqueous suspension or emulsion, with the addition of 0.5% of an additive, at an application rate of 600 l of water/ha (converted). The test plants were placed in the greenhouse for ca. 3 weeks under optimum growth conditions, and then the effect of the preparations was assessed visually in comparison with untreated controls (herbicidal effect in percent (%): 100% effect=plants have died off, 0% effect=as control plants).

Zea mays (ZEAMX) [9] = assay: Post-emergence effects on crop plants, section F (Table F1)
Procedure, shortened: (§6)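 Crops grown in sandy loam in the greenhouse were sprayed post-emergence at the single-leaf stage, 2-3 weeks after sowing. Compounds were formulated as WP or EC with 0.5% additive and applied in 600 l water/ha at 320 g/ha or below. Damage was scored visually about 3 weeks later as % effect versus untreated controls (100% = dead).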

[10] = system: Triticum aestivum (TRZAS); assay: Post-emergence effects on crop plants, section F (Table F2)
Procedure, shortened: as §6

Oryza sativa (ORYZA) [11] = assay: Post-emergence effects on crop plants, section F (Table F3); conditions: Oryza sativa, 504 h, read-out: post-emergence activity against ORYZA in %
Source text: as §5, with “plants). Tables F1 to F4 below show the effects of selected compounds of the general formula (I) according to Table 1 on various crop plants and an application rate corresponding to 320 g/ha or below obtained by the experimental procedure mentioned above.” for “plants).”

Glycine max (GLXMA) [12] = assay: Post-emergence effects on crop plants, section F (Table F4)
Procedure, shortened: as §6

Brassica napus (BRSNW) [13] = assay: Post-emergence effects on crop plants, section F (Table F5); conditions: application rate 80 g/ha; for crop plant damage (phytotoxicity) in % at 80 g/ha: Brassica napus, 504 h, read-out: post-emergence activity against BRSNW in %
Source text: as §5, with “plants). Tables F1 to F4 below show the effects of selected compounds of the general formula (I) according to Table 1 on various crop plants and an application rate corresponding to 320 g/ha or below obtained by the experimental procedure mentioned above.” for “plants).”

[14] = system: Polygonum convolvulus (POLCO); assay: Herbicidal pre-emergence action, section C (Table C7); conditions: application rate 320 g/ha; visual grading after ca. 3 weeks
Source text: as §1

Veronica persica (VERPE) [15] = assay: Herbicidal pre-emergence action, section C (Table C10); conditions: application rate 320 g/ha, visual grading after ca. 3 weeks
Source text: as §1

Kochia scoparia (KCHSC) [16] = assay: Herbicidal pre-emergence action, section C (Table C13); conditions: application rate 320 g/ha, visual grading after ca. 3 weeks
Source text: as §1

Glycine max (GLXMA) [17] = assay: Pre-emergence effects on crop plants, section D (Table D4); conditions: visual grading after ca. 3 weeks
Source text: as §2, §3, §4

Kochia scoparia (KCHSC) [18] = assay: Herbicidal post-emergence action, section E (Table E11); conditions: visual assessment ca. 3 weeks after spraying
Source text: as §5

[19] = system: Digitaria sanguinalis (DIGSA); assay: Herbicidal pre-emergence action, section C (Table C12); conditions: Digitaria sanguinalis, pre-emergence, 504 h; application rate 320 g/ha; visual grading after ca. 3 weeks; read-out: pre-emergence activity against DIGSA in %
Source text: as §1

[20] = system: Polygonum convolvulus (POLCO); assay: Herbicidal post-emergence action, section E (Table E7); conditions: Fallopia convolvulus, 504 h, application rate 320 g/ha, visual assessment ca. 3 weeks after spraying, read-out: post-emergence activity against POLCO in %
Source text: as §5

[21] = Glycine max, 504 h, application rate 320 g/ha, read-out: post-emergence activity against GLXMA in %
[22] = crop plant damage, application rate 320 g/ha
[23] = Zea mays, 504 h, application rate 320 g/ha, read-out: post-emergence activity against ZEAMX in %
[24] = Triticum aestivum, 504 h, application rate 320 g/ha, read-out: post-emergence activity against TRZAS in %

O=C(C1CCCC1)N1CSc2cc(Br)c(-c3ccccc3F)nc21 [Example I-021, [6-bromo-5-(2-fluorophenyl)[1,3]thiazolo[4,5-b]pyridin-3(2H)-yl](cyclopentyl)methanone]
pest or weed control at 320 g/ha [1]: 80% | pest or weed control at 320 g/ha [2]: 90% | pest or weed control at 320 g/ha (Setaria viridis (SETVI)): 80% | pest or weed control at 80 g/ha ([3]; Amaranthus retroflexus, pre-emergence, 504 h, application rate 80 g/ha, read-out: pre-emergence activity against AMARE in %): 100% | pre-emergence activity against ZEAMX in % (crop plant damage) (Zea mays (ZEAMX) [4]; application rate 80 g/ha): 0% | pre-emergence activity against TRZAS in % (crop plant damage) ([5]; application rate 320 g/ha): 0% | pre-emergence activity against ORYZA in % (crop plant damage) (Oryza sativa (ORYZA) [6]; application rate 80 g/ha): 10% | pre-emergence activity against BRSNW in % (crop plant damage) (Brassica napus (BRSNW) [7]; application rate 320 g/ha): 0% | pest or weed control at 320 g/ha (Veronica persica (VERPE) [8]): 80% | percent crop plant damage (phytotoxicity) on Zea mays, post-emergence at 80 g/ha (Zea mays (ZEAMX) [9]; Zea mays, 504 h, application rate 80 g/ha, read-out: post-emergence activity against ZEAMX in %): 10% | percent crop plant damage (wheat, post-emergence) at 80 g/ha ([10]; Triticum aestivum, 504 h, application rate 80 g/ha, read-out: post-emergence activity against TRZAS in %): 0% | percent crop plant damage at 80 g/ha (Oryza sativa (ORYZA) [11]; application rate 80 g/ha): 10% | percent crop plant damage at 320 g/ha (Glycine max (GLXMA) [12]; [21]): 20% | crop plant damage (phytotoxicity) in % at 80 g/ha (Brassica napus (BRSNW) [13]): 10%

COCCOCCOCC(=O)N1CSc2cc(Br)c(-c3cccc(F)c3F)nc21 [Example I-148]
pre-emergence activity against POLCO in % [14]: 80% | pre-emergence activity against VERPE in % (Veronica persica (VERPE) [15]): 80% | pre-emergence activity against AMARE in % ([3]; application rate 320 g/ha): 90% | pre-emergence activity against KCHSC in % (Kochia scoparia (KCHSC) [16]): 90% | pre-emergence activity against ZEAMX in % (crop plant damage) (Zea mays (ZEAMX) [4]; application rate 80 g/ha): 0% | pre-emergence activity against TRZAS in % (crop plant damage) ([5]; application rate 320 g/ha): 0% | pre-emergence activity against GLXMA in % (crop plant damage) (Glycine max (GLXMA) [17]; application rate 80 g/ha): 0% | pre-emergence activity against BRSNW in % (crop plant damage) (Brassica napus (BRSNW) [7]; application rate 80 g/ha): 0% | post-emergence activity against KCHSC in % (Kochia scoparia (KCHSC) [18]; application rate 320 g/ha): 80% | post-emergence activity against ZEAMX in % (Zea mays (ZEAMX) [9]; [22]): 0% | post-emergence activity against TRZAS in % [10, 22]: 0% | post-emergence activity against GLXMA in % (Glycine max (GLXMA) [12]; [22]): 0% | post-emergence activity against BRSNW in % (Brassica napus (BRSNW) [13]; crop plant damage): 20%

O=C(c1ccccc1C(F)(F)F)N1CSc2cc(Br)c(-c3ccccc3Cl)nc21 [Example I-061, [6-bromo-5-(2-chlorophenyl)[1,3]thiazolo[4,5-b]pyridin-3(2H)-yl][2-(trifluoromethyl)-phenyl]methanone]
pre-emergence activity against ZEAMX in % (crop plant damage) (Zea mays (ZEAMX) [4]; application rate 320 g/ha): 0% | pre-emergence activity against TRZAS in % (crop plant damage) ([5]; application rate 320 g/ha): 0% | pre-emergence activity against ORYZA in % (crop plant damage) (Oryza sativa (ORYZA) [6]; application rate 320 g/ha): 20% | pre-emergence activity against GLXMA in % (crop plant damage) (Glycine max (GLXMA) [17]; application rate 320 g/ha): 0% | pre-emergence activity against BRSNW in % (crop plant damage) (Brassica napus (BRSNW) [7]; application rate 320 g/ha): 20% | percent crop plant damage (phytotoxicity) on Zea mays, post-emergence at 320 g/ha (Zea mays (ZEAMX) [9]; [23]): 20% | percent crop plant damage (wheat, post-emergence) at 320 g/ha [10, 24]: 0% | percent crop plant damage at 320 g/ha (Oryza sativa (ORYZA) [11]; application rate 320 g/ha): 0% | percent crop plant damage at 320 g/ha (Glycine max (GLXMA) [12]; [21]): 0% | crop plant damage (phytotoxicity) in % at 80 g/ha (Brassica napus (BRSNW) [13]): 0%

CS(=O)(=O)N1C[S+]([O-])c2cc(Br)c(-c3ccccc3Cl)nc21 (stereo not shown) [Example I-133]
pest or weed control at 320 g/ha [2]: 100% | pest or weed control at 320 g/ha (Setaria viridis (SETVI)): 100% | pest or weed control at 320 g/ha (Veronica persica (VERPE) [15]; Veronica persica, pre-emergence, 504 h, read-out: pre-emergence activity against VERPE in %): 80% | pest or weed control at 320 g/ha [19]: 100% | pest or weed control at 320 g/ha (Kochia scoparia (KCHSC) [16]; Bassia scoparia, pre-emergence, 504 h, read-out: pre-emergence activity against KCHSC in %): 90% | pre-emergence activity against ZEAMX in % (crop plant damage) (Zea mays (ZEAMX) [4]; application rate 320 g/ha): 20% | pre-emergence activity against TRZAS in % (crop plant damage) ([5]; application rate 80 g/ha): 0% | pre-emergence activity against GLXMA in % (crop plant damage) (Glycine max (GLXMA) [17]; application rate 80 g/ha): 20% | pest or weed control at 320 g/ha [20]: 80% | pest or weed control at 320 g/ha (Veronica persica (VERPE) [8]): 80% | pest or weed control at 80 g/ha (Kochia scoparia (KCHSC) [18]; Bassia scoparia, 504 h, application rate 80 g/ha, read-out: post-emergence activity against KCHSC in %): 90% | percent crop plant damage (phytotoxicity) on Zea mays, post-emergence at 320 g/ha (Zea mays (ZEAMX) [9]; [23]): 0% | percent crop plant damage (wheat, post-emergence) at 320 g/ha [10, 24]: 0% | percent crop plant damage at 80 g/ha (Glycine max (GLXMA) [12]; Glycine max, 504 h, application rate 80 g/ha, read-out: post-emergence activity against GLXMA in %): 0% | crop plant damage (phytotoxicity) in % at 80 g/ha (Brassica napus (BRSNW) [13]): 0%
